The values that follow are results of earlier work, collected in patent publication US20050043786A1, “Methods and apparatus for treatment of aneurysmal tissue” (Medtronic AVE, Inc., priority 2003, published 2005).

For the data set the following is noted: for route of clearance / elimination: in vivo.

For `CCOC(=O)[C@H](CCc1ccccc1)N[C@@H](C)C(=O)N1CC2(C[C@H]1C(=O)O)SCCS2` [spirapril], the “route of clearance / elimination” value is “balanced elimination by the liver and kidneys”.

Turning to `C[C@H](CS)C(=O)N1CCC[C@H]1C(=O)O` [captopril], the bioavailability entry (given orally) is “about 75%”.

As for `CCC(=O)O[C@@H](O[P@](=O)(CCCCc1ccccc1)CC(=O)N1C[C@H](C2CCCCC2)C[C@H]1C(=O)O)C(C)C` [fosinopril], the “route of clearance / elimination” value was “balanced elimination by the liver and kidneys”.

On to `NCCCC[C@H](N[C@@H](CCc1ccccc1)C(=O)O)C(=O)N1CCC[C@H]1C(=O)O` [lisinopril], for which the “time of peak concentrations in the plasma” value (oral administration) was “about 7 hours”.
